Reference: EP1459760A9, “Immunopotentiating inosine monophosphate 5'-nucleotidase resistant derivatives and uses thereof” (UNIVERSITY OF SOUTH FLORIDA, priority 1995, dated 1996)

What was measured:
[1] = tested on: 5'-nucleotidase (from Crotalus atrox venom); format: biochemical
[2] = tested on: 5'-nucleotidase; experiment: Percent hydrolysis by 5'-nucleotidase, further set of experiments; format: biochemical, Crotalus atrox; conditions: 20 minutes, 200 µl
[3] = in vivo; cited from earlier work
[4] = tested on: influenza virus; parameters: species or system NMRI mice; conditions: mouse, in vivo

For `Nc1ncnc2c1ncn2[C@@H]1O[C@H](COP(=O)(O)O)[C@@H](O)[C@H]1O` [Adenosine MP, adenosine-5'-monophosphate], the “Hydrolysis (%)” value [1] was 86.0%, the “Percent hydrolysis by 5'-nucleotidase” value ([2]; Assay 1) was 100.0% and the “Percent hydrolysis by 5'-nucleotidase” value ([2]; Assay 2) was 95.1%. For the same compound, the “Percent hydrolysis by 5'-nucleotidase” value ([2]; Assay 3) was 63.7%.
In the case of isoprinosine, the half-life [3] is listed as “less than four”.
With `CC(C)CCCC(C)CCCC(C)CCCCC(C)CCCC(C)CCCC(C)C` (stereo not drawn) [Squalane] the “effect on survivors and MST” value [4] was “no effect”.
